Key:
PKAI = assay: Relative affinity for PKAI (cAMP = 1), in vitro; assay type: binding; conditions: relative to cAMP = 1
Epac = target: T1, Epac (Homo sapiens, UniProt O95398); assay: Relative affinity for Epac (cAMP = 1), in vitro; assay type: binding; conditions: relative to cAMP = 1
T1 sequence (O95398 1-923): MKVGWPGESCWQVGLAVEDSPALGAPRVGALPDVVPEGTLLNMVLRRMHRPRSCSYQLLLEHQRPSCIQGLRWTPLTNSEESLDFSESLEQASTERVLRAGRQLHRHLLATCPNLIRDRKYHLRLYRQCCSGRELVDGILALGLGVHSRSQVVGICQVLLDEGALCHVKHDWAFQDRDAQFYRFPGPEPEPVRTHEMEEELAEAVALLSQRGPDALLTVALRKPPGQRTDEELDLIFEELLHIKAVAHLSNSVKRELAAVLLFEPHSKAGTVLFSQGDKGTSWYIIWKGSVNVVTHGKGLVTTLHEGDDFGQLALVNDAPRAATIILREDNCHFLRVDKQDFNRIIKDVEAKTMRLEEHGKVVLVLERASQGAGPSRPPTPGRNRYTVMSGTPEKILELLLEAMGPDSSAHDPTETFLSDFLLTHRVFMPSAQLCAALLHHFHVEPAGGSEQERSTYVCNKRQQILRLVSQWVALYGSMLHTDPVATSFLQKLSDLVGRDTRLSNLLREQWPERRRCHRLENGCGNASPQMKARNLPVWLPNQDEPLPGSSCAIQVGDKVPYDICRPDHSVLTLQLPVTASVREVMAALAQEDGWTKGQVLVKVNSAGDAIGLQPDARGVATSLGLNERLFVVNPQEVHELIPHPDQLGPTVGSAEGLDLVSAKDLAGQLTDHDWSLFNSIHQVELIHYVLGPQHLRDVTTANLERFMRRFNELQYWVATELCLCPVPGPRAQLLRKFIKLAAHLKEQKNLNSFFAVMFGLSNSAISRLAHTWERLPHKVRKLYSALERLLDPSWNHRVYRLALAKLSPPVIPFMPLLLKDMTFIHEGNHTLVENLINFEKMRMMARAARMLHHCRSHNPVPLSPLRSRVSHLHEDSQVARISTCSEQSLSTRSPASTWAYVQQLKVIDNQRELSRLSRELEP

Epac1-ΔDEP1 = target: T2, Epac1-ΔDEP1 (Homo sapiens, UniProt O95398); assay: In vitro GEF assay: Epac activity in the exchange reaction towards Rap (mantGDP-loaded Rap1b); assay type: biochemical; conditions: in vitro in the exchange reaction towards Rap; note: key: +++: activity comparible to I-007; ++: activity between I-007 and cAMP; +: activity comparible to cAMP; ±: activity less than cAMP
T2 sequence (O95398 191-923 limits assumed): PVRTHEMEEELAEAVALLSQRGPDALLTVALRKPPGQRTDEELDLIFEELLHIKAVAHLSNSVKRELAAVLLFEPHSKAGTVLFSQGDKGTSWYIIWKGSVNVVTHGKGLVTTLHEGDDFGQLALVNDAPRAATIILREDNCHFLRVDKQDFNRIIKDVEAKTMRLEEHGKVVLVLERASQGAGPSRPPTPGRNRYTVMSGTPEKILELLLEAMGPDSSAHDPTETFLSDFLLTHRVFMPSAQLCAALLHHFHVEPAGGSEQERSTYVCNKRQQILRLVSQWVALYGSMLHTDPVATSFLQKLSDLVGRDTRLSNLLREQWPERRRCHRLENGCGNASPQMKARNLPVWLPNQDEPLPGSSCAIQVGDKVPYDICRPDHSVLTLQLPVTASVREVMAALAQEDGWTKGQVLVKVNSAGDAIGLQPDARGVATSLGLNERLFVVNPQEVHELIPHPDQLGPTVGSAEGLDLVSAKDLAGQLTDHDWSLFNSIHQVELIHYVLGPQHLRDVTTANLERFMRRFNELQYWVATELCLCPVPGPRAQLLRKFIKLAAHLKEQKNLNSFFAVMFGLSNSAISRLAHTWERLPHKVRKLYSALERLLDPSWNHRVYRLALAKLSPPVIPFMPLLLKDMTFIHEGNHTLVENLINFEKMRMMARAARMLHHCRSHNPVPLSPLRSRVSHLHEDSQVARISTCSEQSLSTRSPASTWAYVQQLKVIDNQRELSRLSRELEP
Description: In vitro GEF assays were performed as described (3,16). […] Buffer conditions were 50 mM Tris pH7.4, 150 mM NaCl, 5% glycerol, 5 mM DTE, 60 μM GTP. Reactions were carried out in 96-well plates and measured in a Cary Eclipse from Varian Inc., using the manufacturers software.

PKAII = assay: Relative affinity for PKAII (cAMP = 1), in vitro; assay type: binding; conditions: relative to cAMP = 1

Molecule	Relative affinity CAMP = 1 PKAI (PKAI)	Relative affinity CAMP = 1 Epac (Epac)	Relative activity of Epac* (Epac1-ΔDEP1)	Relative affinity CAMP = 1 PKAII (PKAII)
2′-O-ethyladenosine-3′,5′-cyclic monophosphate [Compound I-008]	0.0043	0.05	+	
2′-O-isobutyladenosine-3′,5′-cyclic monophosphate [Compound I-011]	0.0009	0.017	±	
2′-O-methyladenosine-3′,5′-cyclic monophosphate [Compound I-005]	0.005	0.12		0.005
2′-O-n-butyladenosine-3′,5′-cyclic monophosphate [Compound I-010]	0.0008	0.03	+	
2′-O-propyladenosine-3′,5′-cyclic monophosphate [Compound I-009]	0.001	0.03	+	
2′-deoxyadenosine-3′,5′-cyclic monophosphate [Compound I-001]	0.00013	0.0025	+	0.000088
8-(2,3,5,6-tetrafluoro-phenylthio)-2′-O-methyladenosine-3′,5′-cyclic monophosphate [Compound I-124]		4.7	++	
8-(2,4-dichloro-phenylthio)-2′-O-methyladenosine-3′,5′-cyclic monophosphate [Compound I-126]		3.1	++	
8-(2-amino-ethylthio)-2′-O-methyladenosine-3′,5′-cyclic monophosphate [Compound I-118]		0.34	±	
8-(2-hydroxy-ethylthio)-2′-O-methyladenosine-3′,5′-cyclic monophosphate [Compound I-116]		1.2	+	
8-(3-methoxy-phenylthio)-2′-O-methyladenosine-3′,5′-cyclic monophosphate [Compound I-122]		2	+	
8-(4-Chloro-phenylthio)-inosine-3′,5′-cyclic monophosphate [Compound I-139]			+	
8-(4-chloro-phenylthio)-2′-(N,N-dimethyl)-carbamoyl-adenosine-3′,5′-cyclic monophosphate [Compound I-127]		<0.002		
8-(4-chloro-phenylthio)-2′-O-methyladenosine-3′,5′-cyclic monophosphorothioate, Rp-isomer [Compound I-130]		0.06	±	
8-(4-chloro-phenylthio)-2′-O-methyladenosine-3′,5′-cyclic monophosphorothioate, Sp-isomer [Compound I-134]			+	
8-(4-chloro-phenylthio)-2′-deoxyadenosine-3′,5′-cyclic monophosphorothioate, Rp-isomer [Compound I-137]			+	
8-(4-chloro-phenylthio)-2′-deoxyadenosine-3′,5′-cyclic monophosphorothioate, Sp-isomer [Compound I-138]			+	

Molecule	Relative affinity CAMP = 1 PKAI (PKAI)	Relative affinity CAMP = 1 Epac (Epac)	Relative activity of Epac* (Epac1-ΔDEP1)	Relative affinity CAMP = 1 PKAII (PKAII)
8-(4-hydroxy-phenylthio)-2′-O-methyladenosine-3′,5′-cyclic monophosphate [Compound I-125]		6.4	+++	
8-(4-isopropyl-phenylthio)-2′-O-methyladenosine-3′,5′-cyclic monophosphate [Compound I-123]		4.8	++	
8-(4-methyl-phenylthio)-2′-O-methyladenosine-3′,5′-cyclic monophosphate [Compound I-121]		5.1	+++	
8-(benzimidazolyl-2-thio)-2′-O-methyladenosine-3′,5′-cyclic monophosphate [Compound I-115]		0.09	+	
8-(benzothiazolyl-2-thio)-2′-O-methyladenosine-3′,5′-cyclic monophosphate [Compound I-120]		0.17	+	
8-(pyridinyl-2-thio)-2′-O-methyladenosine-3′,5′-cyclic monophosphate [Compound I-119]		0.8	++	
8-benzyloxy-2′-O-methyladenosine-3′,5′-cyclic monophosphate [Compound I-132]		0.18	+	
8-bromo-2′-O-methyladenosine-3′,5′-cyclic monophosphorothioate, Rp-isomer [Compound I-129]		0.05	±	
8-bromo-2′-O-methyladenosine-3′,5′-cyclic monophosphorothioate, Sp-isomer [Compound I-133]			+	
8-bromo-2′-deoxyadenosine-3′,5′-cyclic monophosphorothioate, Rp-isomer [Compound I-135]			+	
8-chloro-2′-O-methyladenosine-3′,5′-cyclic monophosphate [Compound I-141]	0.012	0.92		0.0002
8-cyclohexylamino-2′-deoxyadenosine-3′,5′-cyclic monophosphate [Compound I-140]			+	
8-methoxy-2′-O-methyladenosine-3′,5′-cyclic monophosphate [Compound I-131]		0.36	+	
8-phenylethylamino-2′-O-methyladenosine-3′,5′-cyclic monophosphate [Compound I-111]		0.08	±	
O=[P@]1(O)OC[C@H]2O[C@@H](n3c(Sc4ccc(Cl)cc4)nc4c(Nc5ccccc5)ncnc43)C[C@@H]2O1 [Compound I-004, 8-(4-chloro-phenylthio)-N^6-phenyl-2′-deoxyadenosine-3′,5′-cyclic monophosphate]	0.03	0.5		0.26
CCSc1nc2c(N)ncnc2n1C1OC2COP(=O)(O)OC2C1OC (centres unmarked) [Compound I-117, 8-ethylthio-2′-O-methyladenosine-3′,5′-cyclic monophosphate]		1.8	+	
Nc1ncnc2c1nc(Br)n2[C@H]1C[C@@H]2O[P@@](=O)(S)OC[C@H]2O1 [Compound I-136, 8-bromo-2′-deoxyadenosine-3′,5′-cyclic monophosphorothioate, Sp-isomer]			+	

Reference: patent publication US7906491B2 (Univisitair Medisch Centrum Utrecht, priority 2002, dated 2011)
